Measurements reported in US6664213B1, “Liquid pesticide composition” (Nissan Chemical Industries, Ltd., priority 1999, dated 2003).

Experiments:
[1] = test system: velvetleaf (Abutilon theophrasti); assay: Test Example 5: herbicidal effect of Halosulfuron-methyl spray solution with added polyoxyethylene alkyl ethers on velvetleaf; assay type: in vivo; details: scale 0 to 100; spray solution of 75% water dispersible granules of Halosulfuron-methyl alone, 0.1 g/a., five-leaf stage, 2 l/a., 27 days after spraying
Description: (§1) A biological test was conducted using spray solutions prepared by adding polyoxyethylene alkyl ethers having different HLB values to a herbicide spray solution.
Biological tests were conducted on velvetleaf (Abutilon theophrasti) using spray solutions prepared by adding polyoxyethylene alkyl ethers having different HLB values to a spray solution of 75% water dispersible granules of Halosulfuron-methyl. To confirm a difference in effect between the polyoxyethylene alkyl ethers, the tests were carried out using a lower concentration of Halosulfuron-methyl than usual. A plastic pot having a diameter of 12 cm was filled with soil, and velvetleaf seeds were sowed in the soil. The solutions were sprayed on velvetleaf of five-leaf stage in an amount of 0.1 g per are (g/a.), calculated as pesticidally active ingredient Halosulfuron-methyl. The amount of the solution sprayed was 2 liters per are (l/a.)and 1,000 ppm of a the polyethylene alkyl ethers were added to the solution. Herbicidal effects were observed and evaluated 27 days after spraying.

[2] = test system: crabgrass(Digitaria ciliaris); assay: Test Example 6: herbicidal effect of Quizalofop-p-ethyl spray solution with added polyoxyethylene alkyl ethers on crabgrass; assay type: in vivo; details: scale 0 to 100; spray solution of 40% suspension concentrates of Quizalofop-p-ethyl alone, 125 mg/a., 3 weeks after sowing, 2.5 l/a., 21 days after spraying
Description: as §1
Biological tests were conducted on crabgrass(Digitaria ciliaris) using spray solutions prepared by adding polyoxyethylene alkyl ethers having different HLB values to a spray solution of 40% suspension concentrates of Quizalofop-p-ethyl. A plastic pot having a diameter of 12 cm was filled with soil, and crabgrass seeds were sowed in the soil. The solutions were sprayed on in an amount of 125 mg per are (mg/a.), calculated as pesticidally active ingredient Quizalofop-p-ethyl, 3 weeks after the seeds were sowed. The amount of the solution sprayed was 2.5 liters per are (1/a.) and 125 ppm of the polyoxyethylene alkyl ethers were added to the solution. Herbicidal effects on crabgrass were observed and evaluated 21 days after spraying.

Row | SMILES | Observation evaluation, herbicidal effect of Halosulfuron-methyl on velvetleaf, polyoxyethylene alkyl ether not added [1] | Observation evaluation, herbicidal effect of Quizalofop-p-ethyl on crabgrass, polyoxyethylene alkyl ether not added [2]
1 | COC(=O)c1c(Cl)nn(C)c1S(=O)(=O)NC(=O)Nc1nc(OC)cc(OC)n1 [Halosulfuron-methyl] | 40 | 
2 | CCOC(=O)[C@@H](C)Oc1ccc(Oc2cnc3cc(Cl)ccc3n2)cc1 [Quizalofop-p-ethyl, ethyl=(R)-2-[4-(6-chloroquinoxalin-2-yloxy)phenoxy]propionate] |  | 25
